Results: publication PMC11851430, “Workflow for E3 Ligase Ligand Validation for PROTAC Development” (ACS Chemical Biology, 2025)

Key:
[1] = test system: kinase protein levels in MCF-7 cells; test: TMT-labeled quantitative proteomics; format: cell-based, human; conditions: for kinase degradation: MCF-7 cells, 1 μM, 6 h; for log2FC (compound/DMSO): MCF7, 1 µM, set5
Protocol: (§1) 50 µl of SDS Lysis Buffer (2% SDS, 50 mM TRIS pH 8.5, 10 mM TCEP, 40 mM CAA) was added to each sample. Cells were transferred into low binding reaction tubes (Eppendorf:
(§2) Methanol/Chloroform Precipitation. 200 µl of methanol and 50 µl of chloroform were added to each sample reaction tube and mixed via vortex. 150 µl of milliQ-H2O were added and samples were vortexed further. Samples were centrifuged for 5 minutes at 15000 g and the aqueous layer above the interphase was removed. 150 µl of methanol was added, samples were vortexed and centrifuged for 10 minutes at 15000 g to precipitate the pellet. The aforementioned wash procedure was repeated twice before transferring the pellet to a new low bind reaction tube in which it was allowed to dry for 5 minutes.
(§3) Dissolving the Protein Pellet and Protein Quantification. 50 µl of digestion buffer (8 M Urea, 50 mM TRIS pH 8) was added to each sample before vortexing and shaking at 750 rpm at room temperature for 10 minutes to solubilize the pellet. Protein quantification via PierceTM […]
(§4) Protein Digestion. Samples were diluted 1:2 with 50 mM TRIS pH 8.5 to reach a final concentration of 4 M Urea. Lys-C (Promega: VA1170) was added at a 1:100 enzyme/substrate ratio. Samples were agitated at 550 rpm and 37 °C for 3 h. Samples were further diluted with 50 mM TRIS pH 8.5 to a final concentration of 1 M Urea and Trypsin (Promega: V5280) was added at a 1:100 enzyme/substrate ratio. Samples were agitated overnight at 550 rpm and 37 °C. The digestion was stopped the following day via addition of TFA to a final concentration […]
(§5) Solid Phase Extraction via C18 Cartridges. Sep-Pak C18 Cartridges (Waters: WAT054955) were used for solid phase extraction of digested peptides. For preconditioning of C18 cartridges, 1 mL of methanol was added to each column followed by 1 mL of solution B (0.1% formic acid, 80% acetonitrile) and 1 mL of solution A (0.1% formic acid, ddH2O) twice. Samples […]
(§6) were loaded to their respective columns and once samples had passed, columns were washed twice with solution A to remove unwanted components from the loading step. Elution of samples was carried out via introduction of 40% and 60% acetonitrile steps. Samples were dried and snap frozen in liquid nitrogen.
(§7) TMT-Labeling. Desalted peptides were dried and resuspended in TMT-labeling buffer (200 mM EPPS pH 8.2, 20% acetonitrile). 10 μg of peptides per condition were subjected to TMT labeling with 1:2.5 peptide TMT ratio (w/w) for 1 h at room temperature. The labeling reaction was quenched by addition of hydroxylamine to a final concentration of 0.5% and incubation at room temperature for 15 minutes. Successful TMT labeling was verified by mixing equimolar ratios of peptides and subjecting the mix to single shot LC-MS/MS analysis. For high pH reversed phase fractionation on a Dionex analytical HPLC, 50 µg of pooled and purified TMT labelled samples were resuspended in 10 mM ammonium-bicarbonate (ABC), 5% acetonitrile, and separated on a 250 mm long C18 column (Aeris Peptide XB-C18, 4.6 mm ID, 2.6 µm particle size; Phenomenex) using a multistep gradient from 100% solvent A (5% acetonitrile, 10 mM ABC in water) to 60% solvent B (90% acetonitrile, 10 mM ABC in water) over 70 minutes. Eluting peptides were collected every 45 seconds into a total of 96 fractions, which were cross-concatenated into 24 fractions and dried in a vacuum concentrator and resuspended in 3% acetonitrile with 0.1% TFA for LC-MS analysis.
(§8) Mass spectrometry data acquisition. Tryptic peptides were analyzed on an Orbitrap Lumos coupled to an easy nLC 1200 (ThermoFisher Scientific) using a 35 cm long, 75 µm ID fused-silica column packed in house with 1.9 µm C18 particles (Reprosil pur, Dr. Maisch), and kept at 50 °C using an integrated column oven (Sonation). HPLC solvents consisted of 0.1% formic acid in water (buffer A) and 0.1% formic acid and 80% acetonitrile in water (buffer B). Assuming

[2] = target: T1, kinase protein levels in MCF-7 cells (Homo sapiens, UniProt A0A0U1RRE5); test: TMT-labeled quantitative proteomics; format: cell-based; conditions: protein NBDY; MCF7; 1 µM; set2
T1 construct: endogenous in cells; host or cells: MCF-7
T1 sequence (A0A0U1RRE5 1-68): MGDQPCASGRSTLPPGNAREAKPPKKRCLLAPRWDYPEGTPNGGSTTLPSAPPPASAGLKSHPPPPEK
Protocol: as §1, §2, §3, §4, §5, §6, §7, §8

[3] = target: T2, kinase protein levels in MCF-7 cells (Homo sapiens, UniProt A0A024RBG1); test: TMT-labeled quantitative proteomics; format: cell-based; conditions: protein NUDT4B; MCF7; 1 µM; set2
T2 construct: endogenous in cells; host or cells: MCF-7
T2 sequence (A0A024RBG1 whole entry): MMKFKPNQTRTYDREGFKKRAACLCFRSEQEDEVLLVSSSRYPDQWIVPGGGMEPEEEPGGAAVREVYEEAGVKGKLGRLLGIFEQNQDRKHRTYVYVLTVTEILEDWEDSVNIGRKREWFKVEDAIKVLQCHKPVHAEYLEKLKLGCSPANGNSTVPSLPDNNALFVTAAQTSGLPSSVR
Protocol: as §1, §2, §3, §4, §5, §6, §7, §8

[4] = target: T3, kinase protein levels in MCF-7 cells (Homo sapiens, UniProt A0A0B4J2F0); test: TMT-labeled quantitative proteomics; format: cell-based; conditions: protein PIGBOS1; MCF7; 1 µM; set2
T3 construct: endogenous in cells; host or cells: MCF-7
T3 sequence (A0A0B4J2F0 1-54): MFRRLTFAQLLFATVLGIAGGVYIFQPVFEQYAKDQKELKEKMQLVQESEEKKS
Protocol: as §1, §2, §3, §4, §5, §6, §7, §8

[5] = target: T4, kinase protein levels in MCF-7 cells (Homo sapiens, UniProt A0A096LP01); test: TMT-labeled quantitative proteomics; format: cell-based; conditions: MCF7, 1 µM
T4 construct: endogenous in cells; host or cells: MCF-7
T4 sequence (A0A096LP01 whole entry): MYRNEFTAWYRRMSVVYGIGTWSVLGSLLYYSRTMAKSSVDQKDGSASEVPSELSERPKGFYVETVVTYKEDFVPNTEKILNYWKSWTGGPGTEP
Protocol: as §1, §2, §3, §4, §5, §6, §7, §8

[6] = target: T5, kinase protein levels in MCF-7 cells (Homo sapiens, UniProt P0DPI2); test: TMT-labeled quantitative proteomics; format: cell-based; conditions: protein GATD3; MCF7; 1 µM; set2
T5 construct: endogenous in cells; host or cells: MCF-7
T5 sequence (P0DPI2 42-268): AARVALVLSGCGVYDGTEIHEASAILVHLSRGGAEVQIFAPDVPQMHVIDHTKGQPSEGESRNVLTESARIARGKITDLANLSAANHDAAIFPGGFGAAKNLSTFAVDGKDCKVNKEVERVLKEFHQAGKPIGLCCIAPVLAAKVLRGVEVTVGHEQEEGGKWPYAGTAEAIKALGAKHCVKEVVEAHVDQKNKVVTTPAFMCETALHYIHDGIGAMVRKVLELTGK
Protocol: as §1, §2, §3, §4, §5, §6, §7, §8

VHL = VHL (Homo sapiens, UniProt P40337); test: cell-based; set-up: full-length, NanoLuc fusion (Promega N2741); species or system HEK293T; NanoBRET VHL tracer displacement in permeabilized cells, NanoLuc-VHL fusion; conditions: permeabilized cells; read-out: VHL permeabilized (IC50±sd)/µM
VHL, sequence (P40337 whole entry, the tested form may be a part): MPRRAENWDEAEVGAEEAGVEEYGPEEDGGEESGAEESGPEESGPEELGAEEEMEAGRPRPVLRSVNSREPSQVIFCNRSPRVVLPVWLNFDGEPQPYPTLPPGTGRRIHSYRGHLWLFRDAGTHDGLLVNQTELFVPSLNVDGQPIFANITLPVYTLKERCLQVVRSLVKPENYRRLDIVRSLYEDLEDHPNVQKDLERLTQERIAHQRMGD

AURKA = target: T6, AURKA (Homo sapiens, UniProt O14965); test: NanoBRET target engagement assay, intact and permeabilized cells; conditions: mean of duplicates, ^a values estimated by extrapolation
T6 sequence (O14965 1-403): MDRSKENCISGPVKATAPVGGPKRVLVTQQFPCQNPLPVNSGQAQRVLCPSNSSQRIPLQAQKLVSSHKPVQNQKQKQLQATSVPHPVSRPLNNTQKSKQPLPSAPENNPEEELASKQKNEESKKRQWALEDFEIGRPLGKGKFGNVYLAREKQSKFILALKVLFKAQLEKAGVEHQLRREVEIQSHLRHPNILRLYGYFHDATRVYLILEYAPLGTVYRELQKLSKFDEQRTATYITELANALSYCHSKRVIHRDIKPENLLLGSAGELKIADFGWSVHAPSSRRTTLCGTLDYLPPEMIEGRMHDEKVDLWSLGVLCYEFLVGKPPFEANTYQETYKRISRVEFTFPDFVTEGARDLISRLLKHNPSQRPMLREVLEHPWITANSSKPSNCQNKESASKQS
Protocol: (§9) Compounds were pipetted at various concentrations using an Echo acoustic dispenser (Labcyte), immediately followed by Tracer K10 (Promega, Tracer DB ID: T000008) for AAK1 and Aurora A and VHL Tracer (Promega, Tracer DB ID: T000019) for VHL, at an optimum KD concentration chosen from TracerDB ( tracerdb.org), respectively.
(§10) To measure the BRET signal, the NanoBRET® NanoGlo Substrate (Promega:
(§11) N1573) was added as per the manufacturer’s protocol, and filtered luminescence was measured on a PHERAstar plate reader (BMG Labtech) equipped with a luminescence filter pair (450 nm BP filter (donor) and 610 nm LP filter (acceptor)). For NanoBRET® measurement in permeabilized cells, 25 nL of digitonin (0.05 μg/μL) was pipetted into each well using an
(§12) After incubation, the BRET signals were measured by a PHERAstar plate reader (BMG Labtech) following the same procedure as intact NanoBRET® measurement. Competitive displacement data were then normalized to controls and were plotted using GraphPad Prism 9 software employing a normalized 3-parameter curve fit with the following equation:

full-length AAK1 = full-length AAK1 (Homo sapiens, UniProt Q2M2I8); test: as above
full-length AAK1, sequence (Q2M2I8 whole entry): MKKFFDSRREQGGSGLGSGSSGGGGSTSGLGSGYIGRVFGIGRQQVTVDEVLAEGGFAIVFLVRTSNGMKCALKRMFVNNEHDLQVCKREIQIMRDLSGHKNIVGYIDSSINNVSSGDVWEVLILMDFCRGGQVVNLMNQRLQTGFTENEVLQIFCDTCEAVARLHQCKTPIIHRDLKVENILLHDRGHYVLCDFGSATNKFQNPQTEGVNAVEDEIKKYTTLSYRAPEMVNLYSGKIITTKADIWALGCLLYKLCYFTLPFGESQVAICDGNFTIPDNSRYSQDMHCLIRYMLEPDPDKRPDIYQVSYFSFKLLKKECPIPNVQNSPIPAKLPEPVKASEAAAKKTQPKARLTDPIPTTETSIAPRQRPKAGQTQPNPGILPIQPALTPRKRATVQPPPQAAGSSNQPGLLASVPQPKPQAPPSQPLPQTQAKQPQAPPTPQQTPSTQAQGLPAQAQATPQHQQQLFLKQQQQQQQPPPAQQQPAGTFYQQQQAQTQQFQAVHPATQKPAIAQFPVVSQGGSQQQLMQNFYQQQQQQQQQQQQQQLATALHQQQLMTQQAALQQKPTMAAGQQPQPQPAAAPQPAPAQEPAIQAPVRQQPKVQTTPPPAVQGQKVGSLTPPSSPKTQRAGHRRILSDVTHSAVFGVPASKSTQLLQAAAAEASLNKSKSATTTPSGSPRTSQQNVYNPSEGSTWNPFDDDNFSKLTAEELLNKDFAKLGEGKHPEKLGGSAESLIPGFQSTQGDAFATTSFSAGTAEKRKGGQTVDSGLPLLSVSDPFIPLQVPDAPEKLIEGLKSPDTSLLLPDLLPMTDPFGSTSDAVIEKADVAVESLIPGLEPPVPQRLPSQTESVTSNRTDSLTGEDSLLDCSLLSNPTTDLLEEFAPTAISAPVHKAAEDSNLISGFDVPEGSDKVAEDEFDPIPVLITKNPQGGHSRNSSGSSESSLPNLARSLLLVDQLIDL
Protocol: as §9, §10, §11, §12

[7] = target: T7, kinase protein levels in MCF-7 cells (Homo sapiens, UniProt Q9BTL3); test: TMT-labeled quantitative proteomics; format: cell-based; conditions: protein FAM103A1; MCF7; 1 µM; set5
T7 construct: endogenous in cells; host or cells: MCF-7
T7 sequence (Q9BTL3 whole entry): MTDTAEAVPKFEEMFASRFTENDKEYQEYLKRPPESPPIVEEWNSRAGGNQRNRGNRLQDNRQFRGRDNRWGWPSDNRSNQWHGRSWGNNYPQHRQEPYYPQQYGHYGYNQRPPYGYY
Protocol: as §1, §2, §3, §4, §5, §6, §7, §8

Jurkat cells = test: CellTiterGlo cell viability assay; format: cell-based, human; conditions: 24 h
Protocol: The effects of the compounds on cell viability was determined using the CellTiter-Glo® 2.0 Cell Viability Assay (Promega: G9241) following manufacturer’s protocol. Ten µL of Jurkat cells at […]
After equilibration, PROTACs were titrated at various concentrations using an Echo acoustic […]
volume of CellTiter-Glo® 2.0 reagent (10 µL) was added to each well and cells were incubated for 10 minutes at room temperature. Filtered luminescence was measured on a PHERAstar plate reader (BMG Labtech) and data was evaluated using GraphPad Prism 9 software employing a normalized curve it with the following equation: Y=Bottom + (Top-Bottom)/(1+10(LogEC50-X) *HillSlope).
Sample preparation. Jurkat cells (ATCC © HTB-22) were cultured in RPMI (Thermo: […]

[8] = AURKA intact (IC50±sd)/μM, intact cells
[9] = AURKA permeabilized (IC50±sd)/μM, permeabilized cells
[10] = AAK1 intact (IC50±sd)/μM, NanoBRET, intact cells, mean of duplicates, ^a values estimated by extrapolation
[11] = AAK1 permeabilized (IC50±sd)/μM, NanoBRET, permeabilized cells, mean of duplicates
[12] = protein NBPF19;NBPF15;NBPF8;NBPF10;NBPF3;NBPF11;NBPF26;NBPF14;NBPF1;NBPF12

Row | IC50 (VHL) [µM] | IC50 (AURKA; [8]) [µM] | IC50 (AURKA; [9]) [µM] | IC50 (full-length AAK1; [10]) [µM] | IC50 (full-length AAK1; [11]) [µM] | P.Value (compound/DMSO) [7] | log2FC (compound/DMSO) [7] | P.Value (compound/DMSO) ([5]; protein LINC00493, set5) | log2FC (compound/DMSO) ([5]; protein LINC00493, set5) | SMILES | kinase degradation [1] | log2FC (compound/DMSO) ([1]; protein ARHGEF5;ARHGEF35) | log2FC (compound/DMSO) [1, 12] | also measured
1 | 0.366 ± 0.064 | 4.62 ± 1.12 | 1.52 ± 0.061 | 0.126 ± 0.033 | 0.038 ± 0.006 |  |  |  |  | CC(=O)N[C@H](C(=O)N1C[C@H](O)C[C@H]1C(=O)NCc1ccc(-c2scnc2C)cc1OCCOCCOCCOCCOCCC(=O)N1CCN(c2cc(Nc3cc(C4CC4)[nH]n3)nc(Nc3ccc(CC#N)cc3)n2)CC1)C(C)(C)C [4-d] | did not result in significant degradation of any kinase |  |  | P.Value (compound/DMSO) [2]: 0.03785; log2FC (compound/DMSO) [2]: -0.3975; P.Value (compound/DMSO) [3]: 0.1315; log2FC (compound/DMSO) [3]: -0.2481; P.Value (compound/DMSO) [4]: 0.6355; log2FC (compound/DMSO) [4]: 0.04834; P.Value (compound/DMSO) ([5]; protein SMIM26, set2): 0.9318; log2FC (compound/DMSO) ([5]; protein SMIM26, set2): 0.01005; P.Value (compound/DMSO) [6]: 0.2539; log2FC (compound/DMSO) [6]: -0.1491
2 | 4.32 ± 1.46 | ~5.98 | 2.73 ± 0.78 | 0.443 ± 0.043 | 0.178 ± 0.029 | 0.9983 | -0.0003068 | 0.06841 | 0.3546 | Cc1ncsc1-c1ccc(CNC(=O)[C@@H]2C[C@@H](O)CN2C(=O)[C@@H](NC(=O)CCCCCCN2CCN(c3cc(Nc4cc(C5CC5)[nH]n4)nc(Nc4ccc(CC#N)cc4)n3)CC2)C(C)(C)C)cc1 [4-c] | significant degradation of several kinases | 0.09465 | -0.3485 | 
3 | 0.97 ± 0.013 | ~18.9 | 4.84 ± 2.01 | ~1.84 | 0.081 | 0.9701 | 0.005351 | 0.7132 | 0.05687 | Cc1ncsc1-c1ccc(CNC(=O)[C@@H]2C[C@@H](O)CN2C(=O)[C@@H](NC(=O)CCOCCOCCOCCOCCOCCOCCN2CCN(c3cc(Nc4cc(C5CC5)[nH]n4)nc(Nc4ccc(CC#N)cc4)n3)CC2)C(C)(C)C)cc1 [4-b] | did not result in significant degradation of any kinase | 0.1142 | 0.1563 | AAK1 intact (IC50±sd)/μM (full-length AAK1; NanoBRET, intact cells, mean of duplicates, ^a values estimated by extrapolation): single-digit micromolar; cell permeability / cell penetration (full-length AAK1; as shown by the NanoBRET data (intact vs permeabilized cells)): Inefficient cell penetration
4 | 1.123 ± 0.005 | 0.203 ± 0.01 | 0.105 ± 0.007 | 0.088 ± 0.003 | 0.028 ± 0.001 | 0.2865 | 0.1658 | 0.02321 | -0.4581 | Cc1ncsc1-c1ccc(CNC(=O)[C@@H]2C[C@@H](O)CN2C(=O)[C@@H](NC(=O)CCOCCOCCN2CCN(c3ccc(Nc4ncc(Cl)c(Nc5ccccc5C(N)=O)n4)cc3)CC2)C(C)(C)C)cc1 [6-a] | significant degradation of several kinases | 0.1364 | -0.2637 | effect on cell viability (cytotoxicity) (Jurkat cells): particularly pronounced effects on cell viability; IC50 (Jurkat cells; Homo sapiens, mean of triplicates, ^b/^c values estimated, read-out: IC50±sd/μM (cell viability)): ~0.8 µM
